Results from US20230083973A1, “SUBSTITUTED CYCLOPROPYL-2,2'-BIP[…], ANALOGUES THEREOF, AND METHODS USING SAME” (priority 2019, published 2023).

system: HBsAg; experiment: HBsAg assay: inhibition of HBsAg in HepG2.2.15 cells (chemiluminescence immunoassay of supernatant); format: cell-based, hepatitis B virus; conditions: Hepatitis B virus, HepG2.2.15, 144 h, read-out: sAg EC50, HepG2.2.15 cells; HBsAg in supernatant at day 6 after exposure to compound; 0.5% DMSO
How it was run: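 HepG2.2.15 cells treated with serially diluted compounds (0.5% DMSO), medium and compound refreshed after 2–3 days, supernatant harvested at day 6. Secreted HBsAg measured by chemiluminescence immunoassay; EC50 from dose-response curves, with parallel CellTiter-Glo viability at 5,000 cells/well.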

Point of comparison: `CC(C)OC1CN(c2cc([C@@H]3C[C@H]3c3cnc(-c4ncccn4)nc3)cc(F)c2F)C1` (relative stereo) [Example 210, trans-5-(2-(3,4-Difluoro-5-(3-isopropoxyazetidin-1-yl)phenyl)cyclopropyl)-2,2′-bipyrimidine], EC50 55 nM. Against it:
- COc1cc(C2CN(c3cc([C@@H]4C[C@H]4c4cnc(-c5ncccn5)nc4)cc(F)c3F)C2)ccc1F (relative stereo) [Example 215, trans-5-(2-(3,4-Difluoro-5-(3-(4-fluoro-3-methoxyphenyl)azetidin-1-yl)phenyl)cyclopropyl)-2,2′-bipyrimidine] — within 1.5-fold, 70 nM
- Fc1cc([C@@H]2C[C@H]2c2cnc(-c3ncccn3)nc2)cc(OCc2nccs2)c1F (relative stereo) [Example 218, trans-2-((5-(2-([2,2′-Bipyrimidin]-5-yl)cyclopropyl)-2,3-difluorophenoxy)methyl)thiazole] — within 1.5-fold, 57 nM
- COc1cc([C@@H]2C[C@H]2c2cnc(-c3ccncn3)nc2)cc(F)c1F (relative stereo) [Example 177, trans-5-(2-(3,4-Difluoro-5-methoxyphenyl)cyclopropyl)-2,4′-bipyrimidine] — 6.5-fold higher, 360 nM
- COc1cc(OC(F)(F)F)cc([C@@H]2C[C@H]2c2cnc(-c3ncccn3)nc2)c1 (relative stereo) [Example 164, trans-5-(2-(3-Methoxy-5-(trifluoromethoxy)phenyl)cyclopropyl)-2,2′-bipyrimidine] — 8.7-fold higher, 480 nM
- COc1ccc([C@@H]2C[C@H]2c2cnc(-c3ncccn3)nc2)c(F)c1 (relative stereo) [Example 1, trans-5-(2-(2-Fluoro-4-methoxyphenyl)cyclopropyl)-2,2′-bipyrimidine] — 3.6-fold higher, 200 nM
- COc1ccc(C2CC2c2cnc(-c3ncccn3)nc2)c(F)c1 (single isomer, unassigned) [Example 3, trans-5-(2-(2-Fluoro-4-methoxyphenyl)cyclopropyl)-2,2′-bipyrimidine] — 3.5-fold higher, 190 nM
- Cc1nc2c(F)cc([C@@H]3C[C@H]3c3cnc(-c4ncccn4)nc3)cc2n1C(C)C (relative stereo) [Example 271, trans-6-(2-([2,2′-Bipyrimidin]-5-yl)cyclopropyl)-4-fluoro-1-isopropyl-2-methyl-1H-benzo[d]imidazole] — 4.5-fold higher, 250 nM
- O[C@@H]1CN(c2cc(C3CC3c3cnc(-c4ncccn4)nc3)cc(F)c2F)C[C@H]1O (relative stereo) [Example 239, trans-(3R,4R)-1-(5-(2-([2,2′-Bipyrimidin]-5-yl)cyclopropyl)-2,3-difluorophenyl)pyrrolidine-3,4-diol] — 2-fold higher, 110 nM

same assay, conditions: read-out: sAg EC50; HepG2.2.15 cells; HBsAg in supernatant at day 6 after exposure to compound; 0.5% DMSO

Point of comparison: `CN(C)C(=O)c1cc(C2CC2c2cnc(-c3ncccn3)nc2)ccc1Cl` (single isomer, unassigned) [Example 204, trans-5-(2-([2,2′-Bipyrimidin]-5-yl)cyclopropyl)-2-chloro-N,N-dimethylbenzamide], EC50 4000 nM. Against it:
- COc1c(Cl)ccc(C2CC2c2cnc(-c3ncccn3)nc2)c1F (single isomer, unassigned) [Example 55, trans-5-(2-(4-Chloro-2-fluoro-3-methoxyphenyl)cyclopropyl)-2,2′-bipyrimidine] — 4-fold lower, 1000 nM
- Oc1cnn(-c2cc(C3CC3c3cnc(-c4ncccn4)nc3)cc(F)c2F)c1 (single isomer, unassigned) [Example 259, trans-1-(5-(2-([2,2′-Bipyrimidin]-5-yl)cyclopropyl)-2,3-difluorophenyl)-1H-pyrazol-4-ol] — 2-fold lower, 2000 nM
- Fc1ccc(C2CC2c2cnc(-c3ncccn3)nc2)cc1OC(F)F (single isomer, unassigned) [Example 186, trans-5-(2-(3-(Difluoromethoxy)-4-fluorophenyl)cyclopropyl)-2,2′-bipyrimidine] — 2.5-fold lower, 1600 nM
- COc1cc(C2CC2c2cnc(-c3ncccn3)nc2C2CCCCC2)ccc1F (single isomer, unassigned) [Example 78, trans-4-Cyclohexyl-5-(2-(4-fluoro-3-methoxyphenyl)cyclopropyl)-2,2′-bipyrimidine] — 2.8-fold higher, 11000 nM
- CO[C@@H]1CCN(c2cc(C3CC3c3cnc(-c4ncccn4)nc3)cc(Cl)c2F)C1 (single isomer, unassigned) [Example 111] — 33-fold lower, 120 nM
- COc1cc(C2CC2c2cnc(-c3ncccn3)nc2)c(-c2ccccc2)cc1Cl (single isomer, unassigned) [Example 159, trans-5-(2-(5-Chloro-4-methoxy-[1,1′-biphenyl]-2-yl)cyclopropyl)-2,2′-bipyrimidine] — 12-fold higher, 49000 nM
- COc1cc(C2CC2c2ccc(-c3ncccn3)nn2)ccc1F (single isomer, unassigned) [Example 192, trans-3-(2-(4-Fluoro-3-methoxyphenyl)cyclopropyl)-6-(pyrimidin-2-yl)pyridazine] — 12-fold higher, 49000 nM
- Fc1cc(C2CC2c2cnc(-c3ncccn3)nc2)cc(N2CCC3(COC3)C2)c1F (single isomer, unassigned) [Example 222, trans-6-(5-(2-([2,2′-Bipyrimidin]-5-yl)cyclopropyl)-2,3-difluorophenyl)-2-oxa-6-azaspiro[3.4]octane] — 21-fold lower, 190 nM
- COc1c(Cl)ccc(C2CC2c2cnc(-c3ncccn3)nc2)c1OC (single isomer, unassigned) [Example 114, trans-5-(2-(4-Chloro-2,3-dimethoxyphenyl)cyclopropyl)-2,2′-bipyrimidine] — within 1.5-fold, 3000 nM
- CO[C@H]1CCN(c2cc(C3CC3c3cnc(-c4ncccn4)nc3)cc(F)c2F)C1 (single isomer, unassigned) [Example 102] — 140-fold lower, 29 nM
- Cc1c(C2CC2c2cnc(-c3ncccn3)nc2)ccc(Cl)c1OCC1CC1 (single isomer, unassigned) [Example 62, trans-5-(2-(4-Chloro-3-(cyclopropylmethoxy)-2-methylphenyl)cyclopropyl)-2,2′-bipyrimidine] — 12-fold higher, 49000 nM
- COc1cc(C2CC2c2cnc(-c3ncccn3)nc2)c(Cl)cc1Cl (single isomer, unassigned) [Example 88, trans-5-(2-(2,4-Dichloro-5-methoxyphenyl)cyclopropyl)-2,2′-bipyrimidine] — 48-fold lower, 84 nM
- COc1cc(C2CC2c2cnc(-c3ncccn3)nc2)cc(N2CCCC2)c1F (single isomer, unassigned) [Example 100, trans-5-(2-(4-Fluoro-3-methoxy-5-(pyrrolidin-1-yl)phenyl)cyclopropyl)-2,2′-bipyrimidine] — 66-fold lower, 61 nM
- O=C1CCCN1c1cc(C2CC2c2cnc(-c3ncccn3)nc2)ccc1F (single isomer, unassigned) [Example 198, trans-1-(5-(2-([2,2′-Bipyrimidin]-5-yl)cyclopropyl)-2-fluorophenyl)pyrrolidin-2-one] — 9.3-fold lower, 430 nM
- COc1cc(C2CC2c2cnc(-c3ncccn3)nc2OC)ccc1F (single isomer, unassigned) [Example 80, trans-5-(2-(4-Fluoro-3-methoxyphenyl)cyclopropyl)-4-methoxy-2,2′-bipyrimidine] — 40-fold lower, 100 nM
- COc1cc(C2CC2c2cnc(-c3ncccn3)nc2)ccc1F (single isomer, unassigned) [Example 10, trans-5-(2-(4-Fluoro-3-methoxyphenyl)cyclopropyl)-2,2′-bipyrimidine] — 100-fold lower, 40 nM
- COc1ccc(C2CC2c2cnc(-c3ncccn3)nc2)cc1F (single isomer, unassigned) [Example 13, trans-5-(2-(3-Fluoro-4-methoxyphenyl)cyclopropyl)-2,2′-bipyrimidine] — 49-fold lower, 82 nM
- Fc1cc(C2CC2c2cnc(-c3ncccn3)nc2)cc(N2CC(c3ccccc3)C2)c1F (single isomer, unassigned) [Example 255, trans-5-(2-(3,4-Difluoro-5-(3-phenylazetidin-1-yl)phenyl)cyclopropyl)-2,2′-bipyrimidine] — 5.1-fold lower, 780 nM
- COc1cc(C2CC2c2cnc(-c3ncccn3)nc2)cc(Cl)c1F (single isomer, unassigned) [Example 149, trans-5-(2-(3-Chloro-4-fluoro-5-methoxyphenyl)cyclopropyl)-2,2′-bipyrimidine] — 65-fold lower, 62 nM
- COc1cc(C2CC2c2ccc(-c3ncccn3)nc2)cc(F)c1F (single isomer, unassigned) [Example 124, trans-2-(5-(2-(3,4-Difluoro-5-methoxyphenyl)cyclopropyl)pyridin-2-yl)pyrimidine] — 14-fold lower, 290 nM
- Fc1ccc(C2CC2c2cnc(-c3ncccn3)nc2)cc1OCC(F)F (single isomer, unassigned) [Example 28, trans-5-(2-(3-(2,2-Difluoroethoxy)-4-fluorophenyl)cyclopropyl)-2,2′-bipyrimidine] — 71-fold lower, 56 nM
- COc1cnn(-c2cc(C3CC3c3cnc(-c4ncccn4)nc3)cc(F)c2F)c1 (single isomer, unassigned) [Example 252, trans-5-(2-(3,4-Difluoro-5-(4-methoxy-1H-pyrazol-1-yl)phenyl)cyclopropyl)-2,2′-bipyrimidine] — 290-fold lower, 14 nM
- CN(C)c1cc(C2CC2c2cnc(-c3ncccn3)nc2)ccc1F (single isomer, unassigned) [Example 64, trans-5-(2-([2,2′-Bipyrimidin]-5-yl)cyclopropyl)-2-fluoro-N,N-dimethylaniline] — within 1.5-fold, 3000 nM
- COc1cc(C2CC2c2cnc(-c3ncccn3)nc2)ccc1Cl (single isomer, unassigned) [Example 33, trans-5-(2-(4-Chloro-3-methoxyphenyl)cyclopropyl)-2,2′-bipyrimidine] — 130-fold lower, 31 nM
- Fc1cc(C2CC2c2cnc(-c3ncccn3)nc2)cc(N2CC3(CCOCC3)C2)c1F (single isomer, unassigned) [Example 136, trans-2-(5-(2-([2,2′-Bipyrimidin]-5-yl)cyclopropyl)-2,3-difluorophenyl)-7-oxa-2-azaspiro[3.5]nonane] — 4.3-fold lower, 920 nM
- COc1cc(C2CC2c2cnc(-c3ncccn3)nc2)cc(OC)c1Cl (single isomer, unassigned) [Example 99, trans-5-(2-(4-Chloro-3,5-dimethoxyphenyl)cyclopropyl)-2,2′-bipyrimidine] — within 1.5-fold, 3000 nM
